Data set [1] is described as follows: Metabolic stability in human liver microsomes (HLM). Format: in vitro ADME. Set-up: CLint scaled: dose or concentration left out as unconfirmed. Particulars: both sexes, pH 7.4; for CL/F at 0.5 μM: human liver microsomes 0.5 mg protein/mL, NADPH 1 mM, test compound 0.5 μM, 37° C., 30 minutes, read-out: HLM (apparent clearance). On the procedure:
The metabolic stability is tested in human liver microsomes (In Vitro Technologies, pooled mixed sexes, 20 mg/mL); a subcellular fraction containing major drug-metabolizing phase I enzymes, including the cytochrome P450 (CYP) family and flavin monooxygenases (FMO). The apparent clearance (mL/min/kg) is calculated as a measurement of test compound elimination from the liver.
Procedure: A human microsome incubation mixture (0.5 mg microsomal protein/mL) in phosphate buffer (pH 7.4, 100 mM KH2PO4/10 mM MgCl2) is mixed with NADPH (1 mM). The mixture is pre-heated (7 min) to 37° C., test compound (0.5 μM) is added, and the mixture is incubated for 30 minutes. Incubations are run in duplicate and performed by a Tecan RSP. Samples are withdrawn at 0, 5, 10, 20, and 30 min and mixed with methanol containing internal standard to terminate all enzyme activity and precipitate proteins. […] Samples are analysed by LC-MS/MS.
Data analysis: The logarithm of the peak area ratios of test compound to internal standard versus incubation time is plotted in a graph. The rate constant (k) of test compound depletion is calculated from the linear part of the curve (Eq. 1) and the half-time (t1/2) is calculated from the slope (Eq. 2). Rate constant(k)(min^−1)=−slope Eq. 1 Half-time(t1/2)(min)=ln 2/k Eq. 2
Clint(mL/min/mg protein)=k/Protein concentration Eq. 3

The next data set has as its target T1, VEGFR-2 (KDR) (Homo sapiens, UniProt P35968).
T1 construct: purchased Millipore 14-630
The data set can be described thus: KDR Assay - HTRF KinEASE-TK (in vitro KDR inhibition). The format is biochemical. The note with it: ATP 100 μM, 15 minutes at rt. On the procedure:
KDR Assay—HTRF KinEASE-TK
The compounds to be tested were dissolved in DMSO at 10 mM, stored at −20° C. and protected from light. The maximum concentration of DMSO in the in vitro assay was 0.75%. Control samples received the same concentration of solvent as the samples treated with the test compounds.
For the kinase assays, the HTRF KinEase™-TK kit (CisBio (#62TKOPEJ) was used. All components in HTRF KinEase™-TK kit were handled according to suppliers description. Briefly, DMSO stock solution of compounds (100% DMSO) were prediluted to 6% DMSO in 50 mM Hepesbuffer+0.05% BSA (Sigma Aldrich (A3294)) before transferring 1 μl to a 384-well Proxyplate (Perkin Elmer (#6008289) at RT. Kinase Substrate (2 μL, CisBio) was added to Proxyplate with compound. Enzyme mix (5 μL, Millipore (14-630)) with ATP (100 μM, Sigma Aldrich (A7699)), MgCl2 (5 mM; Sigma Aldrich M1028) and SEB (50 nM, CisBio) was added to start the reaction. The plates were incubated for 15 minutes at rt. The assay was stopped by addition of Detection mix (4 μL, CisBio) and plates were sealed and spun for 1 min at 1000 rpm. The plates were incubated in darkness over night at rt. The plates were read on an Envision (Perkin Elmer) plate reader. Signal from two wave lengths (665 and 620 nm) upon excitation at 340 nm in accordance to manufactures instructions. Briefly, fluorescence was measured for 400 μs between flashes after a delay time of 400 μs. The background measured in the absence of enzyme was subtracted from all samples. The molar concentrations that inhibited 50% of the maximal enzymatic activity (IC50) were calculated using a four-parameter sigmoid curve fit model of the dose-response curve, based on the following equation: y=((a−d)/(1+(x/c)^b))+d; where a is the minimum value, d is the maximum value, c is the IC50 value and […].
For orientation: In TR-FRET formats the signal depends on donor and acceptor labels being close together.

Where [2] appears, read: human, human liver microsomes, HLM assay reference compounds, read-out: intrinsic clearance values of HLM assay reference compounds.

T1 sequence (P35968 790-1356 limits assumed): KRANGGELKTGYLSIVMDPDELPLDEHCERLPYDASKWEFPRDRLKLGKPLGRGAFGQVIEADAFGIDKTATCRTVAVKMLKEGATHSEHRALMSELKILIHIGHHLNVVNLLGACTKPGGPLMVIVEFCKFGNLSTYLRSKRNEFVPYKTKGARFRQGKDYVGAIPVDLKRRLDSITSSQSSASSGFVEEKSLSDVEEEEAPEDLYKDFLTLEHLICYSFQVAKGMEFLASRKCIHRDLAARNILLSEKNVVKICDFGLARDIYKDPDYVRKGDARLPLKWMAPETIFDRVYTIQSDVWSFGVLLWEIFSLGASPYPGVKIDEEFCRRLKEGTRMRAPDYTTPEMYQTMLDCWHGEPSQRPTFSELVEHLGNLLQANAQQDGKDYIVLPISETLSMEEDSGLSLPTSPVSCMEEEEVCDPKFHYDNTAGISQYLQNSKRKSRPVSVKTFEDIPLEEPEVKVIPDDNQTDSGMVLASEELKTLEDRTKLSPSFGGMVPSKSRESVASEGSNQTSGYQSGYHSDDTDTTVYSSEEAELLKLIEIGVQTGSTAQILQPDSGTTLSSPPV

By IC50 is commonly meant the point on the concentration scale where inhibition reaches its midpoint. In the case of `COC(=O)Nc1cc(CNc2ccccc2C(=O)NCCC(C)(C)C)ccn1` [Compound 101, (4-{[2-(3,3-Dimethyl-butylcarbamoyl)-phenylamino]-methyl}-pyridin-2-yl)-carbamic acid methyl ester], the CL/F at 0.5 μM in data set [1] is 135 mL/min/kg. The half-inhibitory concentration (IC50) against VEGFR-2 (KDR) turned out to be 11 nM.

Take `CCC(CC)CCNC(=O)c1ccccc1NCc1ccnc(NC(=O)c2cnco2)c1` [Compound 104, Oxazole-5-carboxylic acid (4-{[2-(3-ethyl-pentylcarbamoyl)-phenylamino]-methyl}-pyridin-2-yl)-amide]: in data set [1], the CL/F at 0.5 μM was 120 mL/min/kg. This compound also had an IC50 at VEGFR-2 (KDR) of 15 nM.

With `CC(C)CCCNC(=O)c1ccccc1NCc1ccnc(NC(=O)c2ccco2)c1` [Compound 106, Furan-2-carboxylic acid (4-{[2-(4-methyl-pentylcarbamoyl)-phenylamino]-methyl}-pyridin-2-yl)-amide], the CL/F at 0.5 μM in data set [1] was more than 200 mL/min/kg. This compound returned a half-inhibitory concentration (IC50) at VEGFR-2 (KDR) of 17 nM.

For the compound `Cc1ncc2n1-c1ccc(Cl)cc1C(c1ccccc1F)=NC2` [Midazolam, reference compound], in data set [1] (setting [2]), the CLint scaled is more than 200 mL/min/kg.

Consider `O=C(Nc1cc(CNc2ccccc2C(=O)NCCC2=CCCCC2)ccn1)c1ccco1` [Compound 108, Furan-2-carboxylic acid (4-{[2-(2-cyclohex-1-enyl-ethylcarbamoyl)-phenylamino]-methyl}-pyridin-2-yl)-amide], for which the CL/F at 0.5 μM in data set [1] was more than 200 mL/min/kg. This compound also returned an IC50 against VEGFR-2 (KDR) of 44 nM.

For `CC(C)(C)CCNC(=O)c1ccccc1NCc1ccnc(NC(=O)c2ccco2)c1` [Compound 107, Furan-2-carboxylic acid (4-{[2-(3,3-dimethyl-butylcarbamoyl)-phenylamino]-methyl}-pyridin-2-yl)-amide], the CL/F at 0.5 μM in data set [1] is more than 200 mL/min/kg. The compound also gave a concentration for half-maximal inhibition (IC50) against VEGFR-2 (KDR) of 39 nM.

`O=C(Nc1cc(CNc2ccccc2C(=O)NCCC2CCCC2)ccn1)c1ccco1` [Compound 105, Furan-2-carboxylic acid (4-{[2-(2-cyclopentyl-ethylcarbamoyl)-phenylamino]-methyl}-pyridin-2-yl)-amide]: in data set [1], the CL/F at 0.5 μM is more than 200 mL/min/kg. Further, the IC50 against VEGFR-2 (KDR) worked out at 43 nM.

For the compound `CC(=O)CC(c1ccccc1)c1c(O)c2ccccc2oc1=O` (centres unmarked) [Warfarin, reference compound], in data set [1] (setting [2]), the CLint scaled at 0.5 μM is less than 10 mL/min/kg.

On to `CCC(CC)CCNC(=O)c1ccccc1NCc1ccnc(NC(C)=O)c1` [Compound 103, 2-[(2-Acetylamino-pyridin-4-ylmethyl)-amino]-N-(3-ethyl-pentyl)-benzamide], for which, in data set [1], the CL/F at 0.5 μM was more than 200 mL/min/kg. This compound yielded an IC50 against VEGFR-2 (KDR) of 19 nM.

For `CCC(CC)CCNC(=O)c1ccccc1NCc1ccnc(NC(=O)c2ccco2)c1` [Compound 109, Furan-2-carboxylic acid (4-{[2-(3-ethyl-pentylcarbamoyl)-phenylamino]-methyl}-pyridin-2-yl)-amide], the CL/F at 0.5 μM in data set [1] was more than 200 mL/min/kg. For the same compound, the IC50 against VEGFR-2 (KDR) was 53 nM.

As for `CC(=O)Nc1cc(CNc2ccccc2C(=O)NCCC2CCCC2)ccn1` [Compound 102, 2-[(2-Acetylamino-pyridin-4-ylmethyl)-amino]-N-(2-cyclopentyl-ethyl)-benzamide], the CL/F at 0.5 μM in data set [1] is more than 200 mL/min/kg. This compound also had a concentration for half-maximal inhibition (IC50) against VEGFR-2 (KDR) of 8 nM.

These data come from patent US8350026B2, “VEGF-2 receptor and protein tyrosine kinase inhibitors and pharmaceutical use thereof” (Leo Pharma A/S, priority 2008, dated 2013).
